Measurements reported in patent US20260240208A1, “FLAVANONE COMPOUNDS AND THEIR USE AS FLAVOR MODIFIERS” (Firmenich Incorporated, priority 2023, published 2026).

Legend:
[1] = sensory panel paired comparison: sweetness alone versus 1.5 wt % sucrose; type: in vivo, human
Experimental: The test samples were prepared from Compound 101 (4 ppm aqueous solution) and Compound 103 (7 ppm aqueous solution). Each of the test samples was evaluated by a sensory panel for its sweetness relative to 1.5 wt % sucrose solution. The panelists were asked to choose the sweeter sample in a pair of a compound test sample and a 1.5 wt % solution of sucrose. For Compound 101, the taste sample was selected 14 times as sweeter, while the sucrose control was selected 46 times out of total 60 times. For Compound 103, the taste sample was selected 14 times as sweeter, while the sucrose control was selected 55 times out of total 69 times.

TIR sweet taste receptor = biological target: T1, TIR sweet taste receptor (Homo sapiens, UniProt Q7RTX0+Q8TE23); assay: in vitro cell-based assay with cells overexpressing the sweet taste receptor, sweet dose-response; conditions: for EC50: cells overexpressing TIR sweet taste receptor, sweet dose-response curves
T1 construct: expressed in transfected cells
T1 sequence (Q8TE23 20-839): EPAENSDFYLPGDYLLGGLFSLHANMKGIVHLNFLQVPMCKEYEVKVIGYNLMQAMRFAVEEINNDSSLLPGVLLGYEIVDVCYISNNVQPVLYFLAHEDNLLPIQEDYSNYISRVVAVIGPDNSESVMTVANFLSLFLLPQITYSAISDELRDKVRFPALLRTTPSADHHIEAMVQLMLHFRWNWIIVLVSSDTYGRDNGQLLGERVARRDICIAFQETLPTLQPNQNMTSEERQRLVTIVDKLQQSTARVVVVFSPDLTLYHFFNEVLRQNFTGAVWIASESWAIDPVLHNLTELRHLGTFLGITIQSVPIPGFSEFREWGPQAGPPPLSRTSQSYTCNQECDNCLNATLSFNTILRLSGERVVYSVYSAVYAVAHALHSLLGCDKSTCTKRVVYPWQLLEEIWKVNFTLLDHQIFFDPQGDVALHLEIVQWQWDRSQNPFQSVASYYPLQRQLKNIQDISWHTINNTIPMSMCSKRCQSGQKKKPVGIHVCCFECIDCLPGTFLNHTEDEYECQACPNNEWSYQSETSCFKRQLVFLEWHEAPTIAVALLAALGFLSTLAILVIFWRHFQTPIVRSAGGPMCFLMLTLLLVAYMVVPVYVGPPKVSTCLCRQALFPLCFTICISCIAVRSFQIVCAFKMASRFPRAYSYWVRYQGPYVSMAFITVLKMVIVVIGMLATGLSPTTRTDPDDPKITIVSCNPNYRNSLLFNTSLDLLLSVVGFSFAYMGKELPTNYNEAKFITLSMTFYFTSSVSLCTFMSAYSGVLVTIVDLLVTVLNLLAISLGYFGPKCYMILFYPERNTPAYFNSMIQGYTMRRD
T1 sequence (Q7RTX0 21-852): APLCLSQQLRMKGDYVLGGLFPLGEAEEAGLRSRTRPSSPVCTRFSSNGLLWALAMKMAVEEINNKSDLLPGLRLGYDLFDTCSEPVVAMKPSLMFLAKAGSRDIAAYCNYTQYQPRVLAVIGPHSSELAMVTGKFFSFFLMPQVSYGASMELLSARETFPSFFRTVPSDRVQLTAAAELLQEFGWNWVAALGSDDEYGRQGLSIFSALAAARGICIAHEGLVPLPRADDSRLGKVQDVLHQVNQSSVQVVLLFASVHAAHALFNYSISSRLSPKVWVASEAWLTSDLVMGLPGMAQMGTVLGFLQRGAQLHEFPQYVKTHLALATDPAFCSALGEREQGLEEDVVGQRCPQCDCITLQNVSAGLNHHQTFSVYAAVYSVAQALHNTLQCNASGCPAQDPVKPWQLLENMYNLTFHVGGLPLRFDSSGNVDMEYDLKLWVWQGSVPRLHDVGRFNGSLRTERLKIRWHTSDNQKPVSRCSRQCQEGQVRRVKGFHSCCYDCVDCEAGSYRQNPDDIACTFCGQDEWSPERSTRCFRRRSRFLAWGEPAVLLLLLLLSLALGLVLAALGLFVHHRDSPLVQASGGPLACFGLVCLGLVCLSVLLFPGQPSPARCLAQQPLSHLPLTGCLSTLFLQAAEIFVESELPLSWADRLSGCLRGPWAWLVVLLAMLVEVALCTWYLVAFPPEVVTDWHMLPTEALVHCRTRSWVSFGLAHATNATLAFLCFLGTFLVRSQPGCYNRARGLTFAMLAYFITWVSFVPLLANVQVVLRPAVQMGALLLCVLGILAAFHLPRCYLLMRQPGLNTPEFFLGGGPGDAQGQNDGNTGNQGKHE
Experimental: Each of Compounds 101-106 was synthesized. Thereafter, the compounds were tested in an in vitro cell-based assay having cells that overexpress the TIR sweet taste receptor. The sweet dose-response curves were recorded and the EC50 was determined. Table 2 summarizes calculated EC50 values for certain tested compounds.

[2] = sensory panel: sweetness enhancement of sucrose, rating on a scale of 0 to 10; type: in vivo, human; conditions: mean panel score, scale 0 to 10
Experimental: Two control samples were prepared of 6 wt % sucrose and 7.5 wt % sucrose in Low sodium buffer. Two test samples were prepared: one at 6 wt % sucrose plus 4 ppm of Compound 101, and the other at 6 wt % sucrose plus 7 ppm of Compound 103. Panelists were asked to evaluate the four samples and rate the sweetness on a scale of 0 to 10, with a higher rating indicating greater sweetness.

[3] = pair: Compound 101 4 ppm aqueous solution vs 1.5 wt % sucrose solution, total 60 times
[4] = pair: Compound 103 7 ppm aqueous solution vs 1.5 wt % sucrose solution, total 69 times

COc1ccc(C2Oc3cccc(O)c3C(=O)C2OC(C)=O)cc1O (stereo not drawn) [Compound 101, 5-hydroxy-2-(3-hydroxy-4-methoxy-phenyl)-4-oxochroman-3-yl acetate]
times selected as sweeter [1, 3]: 14 times
EC50 (TIR sweet taste receptor): ~1 µM
Sweetness Score ([2]; 6 wt % sucrose + 4 ppm compound): 9.8

CCC(=O)OC1C(=O)c2ccc(O)cc2OC1c1ccc(OC)c(O)c1 (stereo not drawn) [Compound 104, 7-hydroxy-2-(3-hydroxy-4-methoxyphenyl)-4-oxochroman-3-yl propionate]
EC50 (TIR sweet taste receptor): ~10 µM

CCC(=O)OC1C(=O)c2c(O)cc(O)cc2OC1c1ccc(OC)c(O)c1 (stereo not drawn) [Compound 105, 5,7-dihydroxy-2-(3-hydroxy-4-methoxyphenyl)-4-oxochroman-3-yl propionate]
EC50 (TIR sweet taste receptor): ~5 µM

CCC(=O)OC1C(=O)c2c(O)cccc2OC1c1ccc(OC)c(O)c1 (stereo not drawn) [Compound 102, 5-hydroxy-2-(3-hydroxy-4-methoxy-phenyl)-4-oxochroman-3-yl propionate]
EC50 (TIR sweet taste receptor): ~2 µM
agonist character (TIR sweet taste receptor; remark printed beside the EC50): partial agonist

COc1ccc(C2Oc3cc(O)ccc3C(=O)C2OC(C)=O)cc1O (stereo not drawn) [Compound 103, 7-hydroxy-2-(3-hydroxy-4-methoxyphenyl)-4-oxochroman-3-yl acetate]
times selected as sweeter [1, 4]: 14 times
EC50 (TIR sweet taste receptor): ~8 µM
Sweetness Score ([2]; 6 wt % sucrose + 7 ppm compound): 8.8

CC(=O)OC1C(=O)c2c(O)cccc2OC1c1ccc(O)cc1 (stereo not drawn) [Compound 106, 5-hydroxy-2-(4-hydroxyphenyl)-4-oxochroman-3-yl acetate]
EC50 (TIR sweet taste receptor): ~45 µM

OC[C@H]1O[C@@](CO)(O[C@H]2O[C@H](CO)[C@@H](O)[C@H](O)[C@H]2O)[C@@H](O)[C@@H]1O [sucrose, reference compound]
times selected as sweeter [1, 3]: 46 times
times selected as sweeter [1, 4]: 55 times
Sweetness Score ([2]; 6 wt % sucrose alone, low sodium buffer (control)): 6.6
Sweetness Score ([2]; 7.5 wt % sucrose alone, low sodium buffer (control)): 8.6
